Experimental data taken from patent publication US10517889B2, “Modulators of SMAD7 expression” (Ionis Pharmaceuticals, Inc., priority 2017, dated 2019).
Strand notation (5' to 3'): a small letter for the sugar, then the base; units joined by * are phosphorothioate-linked, units joined directly phosphodiester-linked; [ ] holds rarer units or linkages, { } end groups; capitals alone tell only the bases. k = constrained ethyl (cEt); [5mC] = 5-methylcytosine; d = 2'-deoxy (DNA)

Test system: human SMAD7 mRNA
Experiment: Antisense inhibition of human SMAD7 mRNA expression in Hep3B cells by 3-10-3 cEt gapmers, 10,000 nM, electroporation (Example 2)
Type: cell-based
Settings: Hep3B cells, 10,000 nM antisense oligonucleotide, electroporation, approximately 24 hours, RT-PCR primer probe set RTS5062, relative to untreated control cells
Procedure, shortened: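 Hep3B, 20,000 cells/well; electroporation, 10,000 nM ASO; ~24 h. Readout: SMAD7 mRNA by qRT-PCR (RTS5062), RIBOGREEN-normalised; % inhibition vs untreated.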

Substance | % Inhibition [%]
800029 (k[5mC]*k[5mC]*kT*dG*dA*dA*dT*d[5mC]*dG*dG*dG*d[5mC]*d[5mC]*k[5mC]*kA*k[5mC]; antisense) [compound 800029] | 0
798908 (k[5mC]*kG*k[5mC]*dG*dG*d[5mC]*dT*dA*d[5mC]*d[5mC]*dG*dG*d[5mC]*kT*kG*kT; antisense) [compound 798908] | 0
798839 (kG*kT*kT*dG*dT*d[5mC]*d[5mC]*dG*dA*dA*dT*dT*dG*kA*kG*k[5mC]; antisense) [compound 798839] | 47
798896 (kG*kG*kG*dT*dG*dT*dA*dG*d[5mC]*dA*d[5mC]*dT*dG*kG*k[5mC]*k[5mC]; antisense) [compound 798896] | 46
799893 (antisense kA*kT*kA*d[5mC]*dA*dA*dA*d[5mC]*d[5mC]*dA*d[5mC]*dT*dG*k[5mC]*kA*kT) [compound 799893] | 0

Same assay, conditions: Hep3B cells, electroporation with 10,000 nM antisense oligonucleotide, approximately 24 hours, RTS5062, percent inhibition of SMAD7 mRNA relative to untreated control cells

Substance | % Inhibition [%]
799807 (antisense kA*kA*kA*dT*dT*dG*dG*dA*dA*dT*dT*dG*dA*kG*kA*k[5mC]) [compound 799807] | 37
799848 (kA*kG*k[5mC]*d[5mC]*dG*dA*dT*d[5mC]*dA*d[5mC]*dA*dA*dA*kA*kG*kG; antisense) [compound 799848] | 59

Same assay, conditions: Hep3B cells, electroporation with 10,000 nM antisense oligonucleotide, approximately 24 hours, SMAD7 mRNA by RT-PCR (RTS5062), relative to untreated control cells

Substance | % Inhibition [%]
830077 (k[5mC]*k[5mC]*kA*d[5mC]*dA*dT*dT*d[5mC]*dA*dG*dG*dG*dT*kG*kT*k[5mC]; antisense) [compound 830077] | 37
798817 (kG*k[5mC]*k[5mC]*dA*d[5mC]*d[5mC]*dA*d[5mC]*dG*d[5mC]*dA*d[5mC]*d[5mC]*kA*kG*kT; antisense) [compound 798817] | 26
772642 (kT*kA*k[5mC]*d[5mC]*dG*dG*d[5mC]*dT*dG*dT*dT*dG*dA*kA*kG*kA; antisense) [compound 772642] | 0
798783 (k[5mC]*kG*kG*d[5mC]*dT*dA*dA*dG*dG*dT*dG*dA*dT*kG*kG*kG; antisense) [compound 798783] | 45
799883 (kT*k[5mC]*kT*dA*dG*dA*dG*dG*dG*dT*dA*dG*dG*kA*kA*kA; antisense) [compound 799883] | 9
830078 (kA*k[5mC]*k[5mC]*dA*d[5mC]*dA*dT*dT*d[5mC]*dA*dG*dG*dG*kT*kG*kT; antisense) [compound 830078] | 0
799455 (antisense kT*kG*kT*dT*dA*dA*dA*dG*dA*d[5mC]*dA*dG*dA*kG*kG*kA) [compound 799455] | 55
799961 (antisense k[5mC]*k[5mC]*kT*dA*dA*dA*dA*d[5mC]*dA*dG*dG*dG*dT*kT*k[5mC]*k[5mC]) [compound 799961] | 20
830021 (antisense kG*kG*kG*dA*dA*dA*dG*dG*d[5mC]*d[5mC]*d[5mC]*dA*dA*k[5mC]*kA*kG) [compound 830021] | 42
798669 (k[5mC]*kG*k[5mC]*dT*d[5mC]*d[5mC]*dG*dT*dG*dG*d[5mC]*dA*dT*kG*k[5mC]*kG; antisense) [compound 798669] | 0
799257 (antisense k[5mC]*k[5mC]*k[5mC]*d[5mC]*dA*dA*dA*dA*d[5mC]*dT*d[5mC]*d[5mC]*dA*kA*kA*kG) [compound 799257] | 27
830098 (kA*kG*kA*d[5mC]*dA*dA*dA*d[5mC]*d[5mC]*dT*dT*d[5mC]*d[5mC]*kG*kA*kA; antisense) [compound 830098] | 37
800043 (kT*kG*k[5mC]*d[5mC]*dA*dG*dG*d[5mC]*d[5mC]*dT*dG*dT*d[5mC]*kA*kG*k[5mC]; antisense) [compound 800043] | 31
799256 (antisense k[5mC]*k[5mC]*kA*dA*dA*dA*d[5mC]*dT*d[5mC]*d[5mC]*dA*dA*dA*kG*kG*kT) [compound 799256] | 0
799350 (kA*kT*kT*d[5mC]*d[5mC]*dT*dA*dG*d[5mC]*dG*d[5mC]*dA*d[5mC]*kT*k[5mC]*kG; antisense) [compound 799350] | 31
799466 (antisense kG*kA*k[5mC]*dA*dG*dA*dA*dG*d[5mC]*dT*d[5mC]*dT*dA*kG*kG*k[5mC]) [compound 799466] | 53
790532 (kG*k[5mC]*kA*d[5mC]*dG*dG*dG*d[5mC]*dA*dG*d[5mC]*dT*dG*k[5mC]*kT*kG; antisense) [compound 790532] | 0
799330 (kG*kG*kT*dA*dT*dG*d[5mC]*dA*d[5mC]*dA*d[5mC]*dT*d[5mC]*kT*k[5mC]*k[5mC]; antisense) [compound 799330] | 45
830085 (k[5mC]*kA*kG*dG*dA*dT*dA*d[5mC]*dA*d[5mC]*dT*dT*dA*kA*kT*k[5mC]; antisense) [compound 830085] | 27

Same assay, conditions: Hep3B cells, electroporation with 10,000 nM antisense oligonucleotide, approximately 24 hours, primer probe set RTS5062, relative to untreated control cells

Substance | % inhibition of SMAD7 mRNA expression [%] | % Inhibition [%]
799023 (kT*kG*kG*dG*dA*d[5mC]*dT*dG*d[5mC]*dA*dA*dA*d[5mC]*k[5mC]*kT*k[5mC]; antisense) [compound 799023] | 42 | 
798976 (antisense kT*kG*kG*dA*dT*dT*dT*d[5mC]*dT*dG*d[5mC]*dT*dT*k[5mC]*k[5mC]*k[5mC]) [compound 798976] |  | 19
799358 (kA*kG*k[5mC]*dA*d[5mC]*dA*dA*dA*dT*dA*d[5mC]*dA*dT*kG*kA*kA; antisense) [compound 799358] | 52 | 
799145 (antisense k[5mC]*kT*kT*dG*dG*dG*dT*dT*dA*dT*dG*dA*d[5mC]*kG*kG*kA) [compound 799145] | 46 | 
798708 (antisense k[5mC]*kG*k[5mC]*dT*d[5mC]*dG*dG*d[5mC]*dT*dG*dT*d[5mC]*d[5mC]*kG*kT*k[5mC]) [compound 798708] | 45 | 
799140 (antisense kT*kG*kA*d[5mC]*dG*dG*dA*d[5mC]*d[5mC]*dA*dA*dA*dT*k[5mC]*k[5mC]*kT) [compound 799140] |  | 60
798707 (antisense kG*k[5mC]*kT*d[5mC]*dG*dG*d[5mC]*dT*dG*dT*d[5mC]*d[5mC]*dG*kT*k[5mC]*kG) [compound 798707] | 74 | 
799383 (antisense k[5mC]*kA*k[5mC]*dA*dA*dA*dA*dA*d[5mC]*d[5mC]*dA*dA*dG*kG*kT*kT) [compound 799383] | 40 | 
799014 (kA*k[5mC]*kA*dT*d[5mC]*d[5mC]*dA*dT*dA*dA*dG*dA*dG*kA*k[5mC]*kA; antisense) [compound 799014] |  | 29
799201 (antisense kT*kT*kT*dT*d[5mC]*dA*dG*dG*dA*dG*dT*d[5mC]*d[5mC]*kT*kT*kT) [compound 799201] | 38 | 

Same assay, conditions: Hep3B cells, electroporation, 10,000 nM antisense oligonucleotide, approximately 24 hours, RTS5062, relative to untreated control cells

Substance | % inhibition of SMAD7 mRNA expression [%]
799575 (k[5mC]*kA*k[5mC]*dA*dT*dT*d[5mC]*dA*dG*dG*dG*dT*dT*kT*kA*kA; antisense) [compound 799575] | 38
799579 (kA*kA*k[5mC]*d[5mC]*dT*dT*d[5mC]*d[5mC]*dG*dA*dA*dA*dG*kG*kA*k[5mC]; antisense) [compound 799579] | 51
799776 (k[5mC]*kA*kG*dA*dA*dG*dG*dA*d[5mC]*d[5mC]*dA*dA*dG*kT*k[5mC]*k[5mC]; antisense) [compound 799776] | 11
772801 (kG*kA*k[5mC]*dA*dA*dA*d[5mC]*d[5mC]*dT*dT*d[5mC]*d[5mC]*dG*kA*kA*kA; antisense) [compound 772801] | 34
799698 (antisense kT*kA*kA*dT*dA*dG*dT*dT*dT*dT*d[5mC]*dT*d[5mC]*kT*k[5mC]*kA) [compound 799698] | 33

Same assay, conditions: SMAD7 mRNA, Hep3B cells, 10,000 nM antisense oligonucleotide, electroporation, approximately 24 hours, primer probe set RTS5062, relative to untreated control cells

Substance | % Inhibition [%]
772711 (kA*kA*kA*d[5mC]*dA*d[5mC]*d[5mC]*dA*dA*dT*d[5mC]*dT*dT*kG*kT*kG; antisense) [compound 772711] | 0
790652 (k[5mC]*kA*k[5mC]*d[5mC]*dA*dG*dT*dT*dG*dG*dT*dT*dT*kG*kA*kG; antisense) [compound 790652] | 25
829772 (antisense kA*kG*kG*dA*d[5mC]*dG*dA*dG*dG*dG*d[5mC]*dG*dG*k[5mC]*kT*kG) [compound 829772] | 52
790463 (kA*kT*kG*dA*dA*dG*dA*dA*dG*dT*d[5mC]*dG*dG*kG*k[5mC]*kG; antisense) [compound 790463] | 53
772762 (kA*kT*kT*dT*dT*dG*d[5mC]*dT*dA*d[5mC]*d[5mC]*dT*dA*kA*kT*kG; antisense) [compound 772762] | 11
829760 (antisense k[5mC]*k[5mC]*kG*d[5mC]*d[5mC]*dT*dT*dG*d[5mC]*d[5mC]*d[5mC]*dA*dG*kG*k[5mC]*kA) [compound 829760] | 3

Same assay, conditions: SMAD7 mRNA, Hep3B cells, electroporation with 10,000 nM antisense oligonucleotide, approximately 24 hours, primer probe set RTS5062, relative to untreated control cells

Substance | % Inhibition [%]
829837 (k[5mC]*k[5mC]*kA*dG*dT*dA*dT*dG*d[5mC]*d[5mC]*dA*d[5mC]*d[5mC]*kA*k[5mC]*kG; antisense) [compound 829837] | 16
829796 (kT*kT*kG*dA*dT*d[5mC]*dT*dT*d[5mC]*d[5mC]*d[5mC]*dG*dT*kA*kA*kG; antisense) [compound 829796] | 27
829846 (antisense kG*kT*k[5mC]*d[5mC]*dG*dA*dA*dT*dT*dG*dA*dG*d[5mC]*kT*kG*kT) [compound 829846] | 29
